In patent US20260092179A1, “GENETICALLY MODIFIED HOST CELLS PRODUCING VIOLACEIN, ANALOGUES, AND DERIVATIVES THEREOF” (OCTARINE BIO APS, priority 2022, published 2026):

Experiments:
Type in all cases: physicochemical
[1] = Alkaline pH stability of dyed fabrics (colour fastness, ΔE); conditions: pH 8 with NaOH
Experimental: (§1) In order to assess the stability and colour fastness of violacein and violacein derivatives dyed onto fabrics, dyed fabrics were subjected to a number of conditions. Fabrics were dyed according to Example 18 and colour coordinates and colour change before and after exposure to a given condition were determined as described in Example 18. To measure temperature stability, fabrics were incubated in an oven set to 80° c. for 4 h. To measure stability under acid and alkaline conditions, fabrics were fully submerged in water solutions set to pH 8 with NaOH and pH 5 with HCl and incubated at room temperature for 30 minutes. Fabrics were then incubated at 37° c. for 4 h. To measure stability during laundering, fabrics were washed at 30° c. under the “mix” setting of a Siemens IQ300 washing machine, then dried in a Siemens IQ300 dryer until dry. To measure artificial light stability, fabrics were placed under an LED lamp at room temperature for 16 h. To measure UV light stability, fabrics were placed under a UV lamp at room temperature for 1 h.

[2] = UV stability of dyed fabrics (colour fastness, ΔE); conditions: for ΔE: before vs after UV lamp, room temperature, 1 h
Experimental: as §1

[3] = Acidic pH stability of dyed fabrics (colour fastness, ΔE); conditions: pH 5 with HCl
Experimental: as §1

[4] = Acrylic, before and after the stability test
[5] = Bleached cotton, before and after the stability test
[6] = Diacetate, before and after the stability test
[7] = Nylon 6,6, before and after the stability test
[8] = Polyester, before and after the stability test
[9] = Wool, before and after the stability test
[10] = Acrylic, after test (UV lamp, room temperature, 1 h)
[11] = Bleached cotton, after test (UV lamp, room temperature, 1 h)
[12] = Diacetate, after test (UV lamp, room temperature, 1 h)
[13] = Nylon 6,6, after test (UV lamp, room temperature, 1 h)
[14] = Polyester, after test (UV lamp, room temperature, 1 h)
[15] = Wool, after test (UV lamp, room temperature, 1 h)

L ([1]; Acrylic, After test): 63.85
a ([1]; Acrylic, After test): 2.52
b ([1]; Acrylic, After test): 0.06
L ([1]; Acrylic, Before test): 65.79
a ([1]; Acrylic, Before test): 3.11
b ([1]; Acrylic, Before test): 0.28
ΔE [1, 4]: 2.04
L ([1]; Bleached cotton, After test): 60.76
a ([1]; Bleached cotton, After test): 3.22
b ([1]; Bleached cotton, After test): −7.53
L ([1]; Bleached cotton, Before test): 59.94
a ([1]; Bleached cotton, Before test): 2.69
b ([1]; Bleached cotton, Before test): −8.23
ΔE [1, 5]: 1.20
L ([1]; Diacetate, After test): 44.97
a ([1]; Diacetate, After test): 7.85
b ([1]; Diacetate, After test): −11.19
L ([1]; Diacetate, Before test): 43.93
a ([1]; Diacetate, Before test): 8.84
b ([1]; Diacetate, Before test): −14.67
ΔE [1, 6]: 3.76
L ([1]; Nylon 6,6, After test): 33.91
a ([1]; Nylon 6,6, After test): 5.25
b ([1]; Nylon 6,6, After test): −19.35
L ([1]; Nylon 6,6, Before test): 34.13
a ([1]; Nylon 6,6, Before test): 6.3
b ([1]; Nylon 6,6, Before test): −20.23
ΔE [1, 7]: 1.39
L ([1]; Polyester, After test): 68.28
a ([1]; Polyester, After test): 1.01
b ([1]; Polyester, After test): −0.5
L ([1]; Polyester, Before test): 66.44
a ([1]; Polyester, Before test): 4.15
b ([1]; Polyester, Before test): −2.11
ΔE [1, 8]: 3.98
L ([1]; Wool, After test): 66.99
a ([1]; Wool, After test): −0.18
b ([1]; Wool, After test): 1.19
L ([1]; Wool, Before test): 67.52
a ([1]; Wool, Before test): 0.35
b ([1]; Wool, Before test): 1.01
ΔE [1, 9]: 0.77
L [2, 10]: 62.36
a [2, 10]: 1.52
b [2, 10]: 0.96
L ([2]; Acrylic, before test): 59.81
a ([2]; Acrylic, before test): 2.39
b ([2]; Acrylic, before test): 0.08
ΔE ([2]; Acrylic): 2.83
L [2, 11]: 58.38
a [2, 11]: 3.17
b [2, 11]: −5.79
L ([2]; Bleached cotton, before test): 58.11
a ([2]; Bleached cotton, before test): 3.63
b ([2]; Bleached cotton, before test): −8.4
ΔE ([2]; Bleached cotton): 2.66
L [2, 12]: 43.08
a [2, 12]: 10.1
b [2, 12]: −9.59
L ([2]; Diacetate, before test): 41.1
a ([2]; Diacetate, before test): 9.04
b ([2]; Diacetate, before test): −13.41
ΔE ([2]; Diacetate): 4.43
L [2, 13]: 35.29
a [2, 13]: 4.36
b [2, 13]: −18.03
L ([2]; Nylon 6,6, before test): 34.58
a ([2]; Nylon 6,6, before test): 4.58
b ([2]; Nylon 6,6, before test): −19.61
ΔE ([2]; Nylon 6,6): 1.75
L [2, 14]: 68.13
a [2, 14]: 1.99
b [2, 14]: −0.71
L ([2]; Polyester, before test): 67.13
a ([2]; Polyester, before test): 1.68
b ([2]; Polyester, before test): −1.12
ΔE ([2]; Polyester): 1.12
L [2, 15]: 68.91
a [2, 15]: 2.13
b [2, 15]: 1.49
L ([2]; Wool, before test): 68.14
a ([2]; Wool, before test): 0.77
b ([2]; Wool, before test): 1.77
ΔE ([2]; Wool): 1.59
L ([3]; Acrylic, After test): 66.03
a ([3]; Acrylic, After test): 2.78
b ([3]; Acrylic, After test): 0.02
L ([3]; Acrylic, Before test): 65.53
a ([3]; Acrylic, Before test): 2.41
b ([3]; Acrylic, Before test): 0.93
ΔE [3, 4]: 1.10
L ([3]; Bleached cotton, After test): 59.6
a ([3]; Bleached cotton, After test): 2.72
b ([3]; Bleached cotton, After test): −7.71
L ([3]; Bleached cotton, Before test): 59.65
a ([3]; Bleached cotton, Before test): 3.71
b ([3]; Bleached cotton, Before test): −6.68
ΔE [3, 5]: 1.43
L ([3]; Diacetate, After test): 45.59
a ([3]; Diacetate, After test): 9.13
b ([3]; Diacetate, After test): −11.74
L ([3]; Diacetate, Before test): 45.97
a ([3]; Diacetate, Before test): 8.41
b ([3]; Diacetate, Before test): −13
ΔE [3, 6]: 1.50
L ([3]; Nylon 6,6, After test): 34.94
a ([3]; Nylon 6,6, After test): 5.43
b ([3]; Nylon 6,6, After test): −20.31
L ([3]; Nylon 6,6, Before test): 34.82
a ([3]; Nylon 6,6, Before test): 5.47
b ([3]; Nylon 6,6, Before test): −20.22
ΔE [3, 7]: 0.16
L ([3]; Polyester, After test): 68.04
a ([3]; Polyester, After test): 1.96
b ([3]; Polyester, After test): −1.34
L ([3]; Polyester, Before test): 66.71
a ([3]; Polyester, Before test): 3.52
b ([3]; Polyester, Before test): −2.04
ΔE [3, 8]: 2.17
L ([3]; Wool, After test): 69.34
a ([3]; Wool, After test): 1.2
b ([3]; Wool, After test): 0.61
L ([3]; Wool, Before test): 69.04
a ([3]; Wool, Before test): 0.77
b ([3]; Wool, Before test): 1.2
ΔE [3, 9]: 0.79
Compound: O=C1NC(c2c[nH]c3ccc(O)cc23)=C/C1=C1\C(=O)Nc2ccccc21 [violacein]
